Test results from ChEMBL document CHEMBL1152889, “Melatonin: Quantum-chemical and biochemical investigation of antioxidant activity” (2009).

Key:
[1] = tested on: Homo sapiens; test: Antioxidant activity against lipid peroxidation in chronic renal failure patient plasma assessed as reduction in malondialdehyde level at 2 mg/kg treated once day before night sleep by thiobarbituric acid based spectrophotometry (Rvb=2.68 +/- 0.44 umol/L); assay type: functional, organism-based; parameters: dose 2 mg/kg; conditions: TDE = time-dependent effect
[2] = tested on: Homo sapiens; test: Antioxidant activity against lipid peroxidation in chronic renal failure patient plasma assessed as malondialdehyde level at 2 mg/kg treated once day before night sleep measured after 1 month by thiobarbituric acid based spectrophotometry (Rvb=2.68 +/- 0.44 umol/L); assay type: functional
[3] = tested on: Homo sapiens; test: Antioxidant activity against lipid peroxidation in chronic renal failure patient plasma assessed as malondialdehyde level at 2 mg/kg treated once day before night sleep measured after 2 months by thiobarbituric acid based spectrophotometry (Rvb=2.68 +/- 0.44 umol/L); assay type: functional
[4] = tested on: Homo sapiens; test: Antioxidant activity against lipid peroxidation in chronic renal failure patient plasma assessed as malondialdehyde level at 2 mg/kg treated once day before night sleep measured after 3 months by thiobarbituric acid based spectrophotometry (Rvb=2.68 +/- 0.44 umol/L); assay type: functional

In the case of COc1ccc2[nH]cc(CCNC(C)=O)c2c1 [MELATONIN], the Activity [1] is reported as “tde”, the Activity [2] is reported as 4.02 µM and the Activity [3] is reported as 3.09 µM. It also gave an Activity [4] of 2.79 µM.
